Values of other authors as cited in PMC12022903, “Evaluation of drug-drug interaction between Suraxavir Marboxil (GP681) and itraconazole, and assessment of the impact of gene polymorphism” (Frontiers in Pharmacology, 2025).

How the values were obtained:
[1] = design: method as in Phase I study; conditions: ref Phase I study, cited from earlier work
MDR1 = system: MDR1; design: method as in unpublished data; conditions: preclinical studies; ref unpublished data; cited from earlier work
[2] = design: method as in unpublished data; conditions: after oral GP681; ref unpublished data; cited from earlier work
CYP3A4 = conditions: preclinical in vitro studies; cited from earlier work
plasma protein = system: plasma protein; design: method as in unpublished data; conditions: preclinical studies; ref unpublished data; cited from earlier work
BCRP = system: BCRP; design: method as in unpublished data; conditions: preclinical studies; ref unpublished data; cited from earlier work
OAT3 = system: OAT3; design: method as in unpublished data; conditions: preclinical studies; ref unpublished data; cited from earlier work

O=C1c2c(O)c(=O)ccn2N([C@@H]2c3ccccc3SCc3c2ccc(F)c3F)[C@@H]2COC3(CC3)CN12 [GP1707D07]
C24 ([1]; all tested dose cohorts (20 mg–80 mg)): > 6.87 ng/mL | time maintained above the target concentration (6.87 ng/mL) ([1]; dose cohorts 20 mg–80 mg): 72 to 136 h | substrate for the MDR1 transporter (MDR1): Neither Suraxavir Marboxil (GP681) nor its metabolite, GP1707D07, serves as substrates | share of the total radioactivity in serum [2]: approximately 95.4% | substrate of CYP3A4 (CYP3A4): is a substrate of CYP3A4 | plasma protein binding rate (plasma protein): high plasma protein binding rate | substrate for the BCRP transporter (BCRP): Neither Suraxavir Marboxil (GP681) nor its metabolite, GP1707D07, serves as substrates | inhibition of transport activity of OAT3 (OAT3): nor do they inhibit the transport activity
